Assay results reported in PMC7606612, “Identification of HMGA2 inhibitors by AlphaScreen-based ultra-high-throughput screening assays” (Scientific Reports, 2020).

Columns and labels:
HMGA2 = target: T1, HMGA2 (Mus musculus, UniProt P52927); experiment: Isothermal titration calorimetry (ITC), titration into HMGA2; assay type: binding, mammalian; conditions: for HMGA2 Binding site: number of sites
T1 construct: made in house
T1 sequence (P52927 2-108 limits assumed): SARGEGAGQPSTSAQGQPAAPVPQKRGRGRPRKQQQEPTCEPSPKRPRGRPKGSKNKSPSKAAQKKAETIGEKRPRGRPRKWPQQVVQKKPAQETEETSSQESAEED
Method: ITC experiments were conducted using a VP-ITC titration calorimeter (MicroCal, Inc., Northampton, MA) interfaced to a PC. Origin 7.0, supplied by the manufacturer was used for data acquisition. […] The heat liberated or absorbed is observed as a peak corresponding to the power required keeping the sample and reference cells at identical temperatures. The peak produced during the injection is converted to heat output by integration and corrected for cell volume and sample concentration. […] The net enthalpy for the titration reaction was determined by subtraction of the component heats of dilution.

BTSC#30p = experiment: Light microscopy of morphology / differentiation, BTSC#30p; assay type: cell-based; conditions: 100 µM and 200 µM, 6 days
[1] = target: T2, bromodomain-containing protein 4 (BRD4) (Homo sapiens, UniProt O60885); experiment: BRD4 AlphaScreen counterscreen assay (H4 peptide binding to BRD4); conditions: counter screen, Fig. 3c
T2 construct: His-tagged BRD4-BD1 was purchased from BPS Bioscience (#31042); purchased BPS Bioscience 31042
Method: In this study, we also developed a LANCE time-resolved fluorescence energy transfer (TR-FRET) assay as a secondary assay for our screening. The His-tagged HMGA2 and biotinylated oligomer FL814 were linked to Europium-labeled anti-6 × His antibody and APC-labeled streptavidin, respectively. A series of DNA binding studies were performed to determine the optimal conditions for the secondary Assay (Fig. S2). After these experiments, 12.5 nM of FL814 and 62.5 nM of HMGA2 were chosen for the assay, which is the same for the primary assay. The assay tolerated up to 0.25% DMSO without any significant change in signal (Fig. S2c). For a counterscreen assay to exclude those compounds that nonspecifically bind to the protein surface, an AlphaScreen assay of H4 peptide binding to bromodomain-containing protein 4 (BRD4) was adopted (Fig. S2e). Since we are looking for compounds with anti-metastasis or anti-obesity activities, compounds with high levels of cytotoxicity are undesirable. […]
Using a Labcyte Echo 555 acoustic dispenser 5 nL of DMSO were added to columns 1–4 and 45–48 of a white 1536 well plate, while 5 nL of 2 mM compounds in DMSO were added to columns 5–44. […] After an overnight incubation at room temperature the plates were read on a Perkin Elmer Envision multimode plate reader in AlphaScreen mode.

BTSC#83 [2] = experiment: Light microscopy of morphology / differentiation, BTSC#83; assay type: cell-based; conditions: 100 µM and 200 µM, 6 days
HMGA2-DNA interactions [3] = target: T3, HMGA2-DNA interactions (Mus musculus, UniProt P52927); experiment: Protein-DNA interaction ELISA (PDI-ELISA) assay; assay type: binding, mammalian; conditions: inhibition of HMGA2-DNA interactions, PDI-ELISA
T3 construct: made in house
T3 sequence (P52927 2-108 limits assumed): T1 sequence (P52927 2-108 limits assumed)
Description: The PDI-ELSA assays were described previously[33] and used to determine the inhibition IC50 against HMGA2-DNA interactions. The apparent inhibitory IC50 values were obtained using the following equation: y=min+(max-min/1+10^((x-logIC50)×Hillslope) , where x, y, max, and min represent the inhibitor’s concentration, the inhibition level, the maximum inhibition value, and the minimum inhibition value, respectively.

BTSC#83 [4] = experiment: Growth curves (CellTiter), BTSC#83; assay type: cell-based; conditions: up to 200 μM
Method: BTSC#83 and BTSC#30p and their culture conditions have been described. For growth curves, suspension cultures were mechanically disaggregated and filtered through 37 µm filters (StemCell Technologies, Vancouver, Canada) in order to obtain bona fide single-cell suspension. […] Cell growth was assayed at the indicated time using the CellTiter Assay System (Promega). The growth conditions of 8505c anaplastic thyroid carcinoma cells and mouse Embryonic Fibroblasts (MEFs) knock-out for HMGA1, HMGA2, and HMGA1/A2 double mutant have been described previously[42],[64]. P values were calculated by using two-way ANOVA followed by Sidak’s multiple comparison test.

[5] = no reference given; cited from earlier work
HMGA2-DNA interactions [6] = target: T3, HMGA2-DNA interactions; experiment: LANCE TR-FRET secondary assay of HMGA2 binding to FL814; design: species or system mammalian; concentration or dose not given beside the values; conditions: cherry picked primary hits
Method: In this study, we also developed a LANCE time-resolved fluorescence energy transfer (TR-FRET) assay as a secondary assay for our screening. The His-tagged HMGA2 and biotinylated oligomer FL814 were linked to Europium-labeled anti-6 × His antibody and APC-labeled streptavidin, respectively. A series of DNA binding studies were performed to determine the optimal conditions for the secondary Assay (Fig. S2). After these experiments, 12.5 nM of FL814 and 62.5 nM of HMGA2 were chosen for the assay, which is the same for the primary assay. The assay tolerated up to 0.25% DMSO without any significant change in signal (Fig. S2c). For a counterscreen assay to exclude those compounds that nonspecifically bind to the protein surface, an AlphaScreen assay of H4 peptide binding to bromodomain-containing protein 4 (BRD4) was adopted (Fig. S2e). Since we are looking for compounds with anti-metastasis or anti-obesity activities, compounds with high levels of cytotoxicity are undesirable. […] Furthermore, potential DNA-binding compounds, i.e., DNA intercalators, minor groove binders, and DNA alkylating agents, can be identified by analyzing their chemical structures and will be excluded as well.
Using a Labcyte Echo 555 acoustic dispenser 5 nL of DMSO were added to columns 1–4 and 45–48 of a white 1536 well plate, while 5 nL of 2 mM compounds in DMSO were added to columns 5–44. Using a Beckman BioRAPTR FRD bulk reagent dispenser 1 µL of assay buffer (10 mM Tris, 300 mM NaCl and 0.005% Tween 20) was added to columns 1 and 2. Next, 1 µL of assay buffer containing 125 nM HMGA2 was added to columns 3–48 with a Beckman BioRAPTR FRD bulk reagent dispenser. Finally, 1 µL of assay buffer containing 25 nM FL814 was added to every well of the plate using a Beckman BioRAPTR FRD bulk reagent dispenser. The plate was then centrifuged at 200 × g for 1 min. After 30 min at room temperature 1 µL of assay buffer containing 250 nM LANCE Ultra ULight-anti-6xHIS and 1 µL of assay buffer containing 12 nM LANCE Eu-W1024 Streptavidin was dispensed into every well using a Beckman BioRAPTR FRD bulk reagent dispenser. The plates were then centrifuged at 200 × g for 1 min. After 1 h at room temperature the plates were read on a Perkin Elmer Envision multimode plate reader in TR-FRET mode (excitation @340 nm, first emission at @665 nm, second emission at 615 nm).

SMILES: Cc1ccc(C(=O)Nc2ccc(S(=O)(=O)O)c3cc(S(=O)(=O)O)cc(S(=O)(=O)O)c23)cc1NC(=O)c1cccc(NC(=O)Nc2cccc(C(=O)Nc3cc(C(=O)Nc4ccc(S(=O)(=O)O)c5cc(S(=O)(=O)O)cc(S(=O)(=O)O)c45)ccc3C)c2)c1 [suramin]
- –TΔS (HMGA2; first type of binding sites): 5.56 kcal/mol
- HMGA2 Binding site (HMGA2; first type): three
- HMGA2 Binding site (HMGA2; first type, listed as Suramin): 2.81
- HMGA2 Binding site (HMGA2; second type): two
- HMGA2 Binding site (HMGA2; second type, listed as Suramin): 2
- − TΔS (HMGA2; second type of binding sites): 0.24 kcal/mol
- Kd (HMGA2; second type of binding sites, read-out: HMGA2 Ka (M^−1) (converted)): 23 µM
- total of suramin binding sites on HMGA2 (HMGA2; two types, confirmed by mass spectrometry): five
- cell morphology / induction of differentiation (BTSC#30p): acquire flat epithelial morphology
- inhibition of H4 peptide binding to BRD4 [1]: did not inhibit H4 peptide binding to BRD4
- cell morphology / induction of differentiation (BTSC#83 [2]): adhere to the bottom of the well and extend neurite-like structures
- IC50 (HMGA2-DNA interactions [3]): 2.78 ± 0.1 µM
- cell growth (BTSC#83 [4]): did not significantly affect the cell growth
- oral bioavailability [5]: not orally bioavailable
- inhibition of HMGA2-DNA interactions (HMGA2-DNA interactions [6]): ≥ 50%
